Test results published in US20240043439A1, “COMPOUNDS AS C5AR INHIBITORS” (Kira Pharmaceuticals (Suzhou) Ltd., priority 2020, published 2024).

Tests used:
[1] = target: human C5a receptor (C5aR) (Homo sapiens (Human), UniProt P21730); experiment: Inhibition of C5a-C5aR binding (biotinylated human C5a, U937/C5aR cells, FACS)
Procedure: U937 cells were originally obtained from the American Type Culture Collection (ATCC) and transfected with human C5a receptor (C5aR). U937/C5aR cells were cultured at 37° C., 5% CO2 in RPMI1640 (Gibco) supplemented with 10% FBS (Gibco) and 350 µg/ml Geneticin (Gibco) and passaged every 3 days to maintain the density range from […] to 2×10^6 cells/ml.
Human C5a biotinylation was performed according to the procedure provided by manufacturer (Thermo Scientific, A39257). 10 mM solution of Sulfo-NHS-LC-Biotin was prepared by adding 180μl ultrapure H2O to the 1 mg vial immediately. 12 μl 10 mM biotin reagent was added to […] human C5a solution, gently pipetted for 3 seconds, and incubated on ice for 2 hours. Amicon ultra-0.5 centrifuge filter device (Millipore, UFC5003BK) was pre-rinsed with Milli-Q H2O, centrifuged at 14000 g for 5 min immediately before use. Up to […] sample (diluted by PBS) was added to the device and capped. The device was spinned at 14000 g for approximately 5 min. 250 μl PBS was added to the filter device, spinned at 14000 g for 5 min, and repeatedly washed 6 times. The filter device was separated from the microcentrifuge tube and placed upside down in a clean microcentrifuge tube, spinned for 2 min at 1000 g to transfer the concentrated sample from the device to the tube.
U937/C5aR cells were collected and washed twice by PBS, cells were suspended in PBS+0.1% BSA buffer at the density of 3×10^6 cells/ml. 100 μl cell suspension was added to a 96 well microplate. 50 μl compound diluted in assay buffer and 50 μl biotinylated ligand human C5a (30 nM) were added to corresponding wells in order and the plate was incubated on ice for 120 min and then centrifuged at 1000 rpm for 3-5 min at 4° C. Supernatant was removed and cells were washed by pre-cold PBS twice. 100 μl FITC conjugated streptavidin was added to cells, incubated on ice for another 30 min, and then centrifuged at 1000 rpm for 3-5 min at 4° C. Supernatant was removed and cells were washed by pre-cold PBS twice. 150 μl PBS was added to suspend the cells and signals were detected by FACS (Beckman, Cytoflex).

C5aR = C5aR (Homo sapiens (Human), UniProt P21730); experiment: Calcium mobilization (U937/C5aR or HEK293/C5aR cells, FLIPR); format: cell-based; conditions: agonist human C5a at EC80, FLIPR
Procedure: U937/C5aR cells or HEK293/C5aR cells were washed by PBS and suspended in growth media at the density of 1×10^6 cells/ml. […] to the 384-well plate and culture for overnight. Transfer 250 nl compound solution to the cell plate using Echo, incubate for 60 min. Cells were added with Fluo-4 Direct™ dye and incubate for 50 min at 37° C. 5% CO2 and 10 m at room temperature. Place the cell plate into […] (Molecular Devices). Transfer 10 μl of 5-fold EC80 concentrations of agonist human C5a to the cell plates.

C5aR, sequence (P21730 whole entry): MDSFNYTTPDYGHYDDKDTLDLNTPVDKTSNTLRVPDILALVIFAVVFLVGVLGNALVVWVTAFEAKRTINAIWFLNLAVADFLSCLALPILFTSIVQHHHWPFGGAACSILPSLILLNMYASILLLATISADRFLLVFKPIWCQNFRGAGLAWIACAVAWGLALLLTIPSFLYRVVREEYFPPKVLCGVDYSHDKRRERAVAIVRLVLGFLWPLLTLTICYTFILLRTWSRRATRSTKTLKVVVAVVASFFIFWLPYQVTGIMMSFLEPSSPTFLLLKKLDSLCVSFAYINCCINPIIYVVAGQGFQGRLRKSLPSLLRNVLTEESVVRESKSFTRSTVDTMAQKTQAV
human C5a receptor (C5aR), sequence (P21730 whole entry): as above

IC50 [1] [nM] | IC50 (C5aR) [nM] | Compound
50 to 500 | 500 to 2000 | Cc1ccc(NC(=O)[C@H]2C[C@H]3COCC3N(C(=O)c3c(C)cccc3F)[C@H]2c2ccc(NC3CCOCC3)cc2)cc1C(F)(F)F (mixture of isomers) [Compound 135, cis-1-(2-fluoro-6-methylbenzoyl)-N-(4-methyl-3-(trifluoromethyl)phenyl)-2-(4-((tetrahydro-2H-pyran-4-yl)amino)phenyl)octahydrofuro[3,4-b]pyridine-3-carboxamide]
2000 to 5000 | 2000 to 10000 | Cc1cccc(F)c1C(=O)N1C2COC[C@@H]2C[C@H](C(=O)Nc2ccc(N(C)C)cc2)[C@@H]1c1ccc(NC2CCOCC2)cc1 (mixture of isomers) [Compound 136, cis-N-(4-(dimethylamino)phenyl)-1-(2-fluoro-6-methylbenzoyl)-2-(4-((tetrahydro-2H-pyran-4-yl)amino)phenyl)octahydrofuro[3,4-b]pyridine-3-carboxamide]
2000 to 5000 | – | Cc1cccc(F)c1C(=O)N1[C@@H]2COC[C@@H]2C[C@H](C(=O)Nc2ccc3cnn(C)c3c2)[C@@H]1c1ccc(NC2CCCC2)cc1 [Compound 122, (2R,3S,4aR,7aS)-2-(4-(cyclopentylamino)phenyl)-1-(2-fluoro-6-methylbenzoyl)-N-(1-methyl-1H-indazol-6-yl)octahydrofuro[3,4-b]pyridine-3-carboxamide]
50 to 500 | – | Cc1cccc(F)c1C(=O)N1[C@@H]2COC[C@@H]2C[C@H](C(=O)Nc2cnc3cnn(C)c3c2)[C@@H]1c1ccc(NC2CCCC2)cc1 [Compound 123, (2R,3S,4aR,7aS)-2-(4-(cyclopentylamino)phenyl)-1-(2-fluoro-6-methylbenzoyl)-N-(1-methyl-1H-pyrazolo[4,3-b]pyridin-6-yl)octahydrofuro[3,4-b]pyridine-3-carboxamide]
2000 to 5000 | – | Cc1cccc(F)c1C(=O)N1[C@@H]2COC[C@@H]2C[C@H](C(=O)Nc2ccc3c(cnn3C)c2)[C@@H]1c1ccc(CN2CCOCC2(C)C)cc1 [Compound 142, (2R,3S,4aR,7aS)-2-(4-((3,3-dimethylmorpholino)methyl)phenyl)-1-(2-fluoro-6-methylbenzoyl)-N-(1-methyl-1H-indazol-5-yl)octahydrofuro[3,4-b]pyridine-3-carboxamide]
500 to 2000 | – | Cc1ccc(NC(=O)[C@H]2CCCN(C(=O)c3c(C)cccc3F)[C@H]2C2CCC3(CCOC3)CC2)cc1C(F)(F)F (stereo partly drawn) [Compound 170, (2S,3S)-1-(2-fluoro-6-methylbenzoyl)-N-(4-methyl-3-(trifluoromethyl)phenyl)-2-(2-oxaspiro[4.5]decan-8-yl)piperidine-3-carboxamide]

Further lines, the compound ahead of its results:

Compound | IC50 [1] [nM] | IC50 (C5aR) [nM]
Cc1cccc(F)c1C(=O)N1C2CCC[C@@H]2C[C@H](C(=O)Nc2cccc(F)c2)[C@@H]1c1ccc(NC2CCCC2)cc1 (mixture of isomers) [Compound 56, cis-2-(4-(cyclopentylamino)phenyl)-1-(2-fluoro-6-methylbenzoyl)-N-(3-fluorophenyl)octahydro-1H-cyclopenta[b]pyridine-3-carboxamide] | < 50 | 50 to 500
Cc1cccc(F)c1C(=O)N1C2CCC[C@@H]2C[C@H](C(=O)Nc2ccc3ncn(C)c3c2)[C@@H]1c1ccc(NC2CCCC2)cc1 (mixture of isomers) [Compound 74, cis-2-(4-(cyclopentylamino)phenyl)-1-(2-fluoro-6-methylbenzoyl)-N-(1-methyl-1H-benzo[d]imidazol-6-yl)octahydro-1H-cyclopenta[b]pyridine-3-carboxamide] | 2000 to 5000 | > 10000
Cc1ncc(NC(=O)[C@H]2C[C@H]3CCC[C@H]3N(C(=O)c3c(C)cccc3F)[C@H]2c2ccc(NC3CCCC3)cc2)cn1 (racemic) [Compound 58, cis-2-(4-(cyclopentylamino)phenyl)-1-(2-fluoro-6-methylbenzoyl)-N-(2-methylpyrimidin-5-yl)octahydro-1H-cyclopenta[b]pyridine-3-carboxamide] | 50 to 500 | 50 to 500
Cc1cccc(F)c1C(=O)N1[C@@H]2CCC[C@@H]2C[C@H](C(=O)Nc2ccc(Cl)c(C(F)(F)F)c2)[C@@H]1c1ccc(NC2CCCC2)cc1 (racemic) [Compound 60, cis-N-(4-chloro-3-(trifluoromethyl)phenyl)-2-(4-(cyclopentylamino)phenyl)-1-(2-fluoro-6-methylbenzoyl)octahydro-1H-cyclopenta[b]pyridine-3-carboxamide] | 2000 to 5000 | 50 to 500
Cc1ccc(NC(=O)[C@H]2C[C@H]3CCC[C@H]3N(C(=O)c3c(C)cccc3F)[C@H]2c2ccc(NC3CCCC3)cc2)cn1 (racemic) [Compound 63, cis-2-(4-(cyclopentylamino)phenyl)-1-(2-fluoro-6-methylbenzoyl)-N-(6-methylpyridin-3-yl)octahydro-1H-cyclopenta[b]pyridine-3-carboxamide] | < 50 | 500 to 2000
Cc1cccc(F)c1C(=O)N1[C@@H]2CCC[C@@H]2C[C@H](C(=O)Nc2ccc(Cl)c(Cl)c2)[C@@H]1c1ccc(NC2CCCC2)cc1 (racemic) [Compound 64, cis-2-(4-(cyclopentylamino)phenyl)-N-(3,4-dichlorophenyl)-1-(2-fluoro-6-methylbenzoyl)octahydro-1H-cyclopenta[b]pyridine-3-carboxamide] | 500 to 2000 | 2000 to 10000
Cc1cccc(F)c1C(=O)N1[C@@H]2CCC[C@@H]2C[C@H](C(=O)Nc2ccc(NC=O)c(O)c2)[C@@H]1c1ccc(NC2CCCC2)cc1 (racemic) [Compound 68, cis-2-(4-(cyclopentylamino)phenyl)-1-(2-fluoro-6-methylbenzoyl)-N-(4-formamido-3-hydroxyphenyl)octahydro-1H-cyclopenta[b]pyridine-3-carboxamide] | 2000 to 5000 | 500 to 2000
Cc1cccc(F)c1C(=O)N1[C@@H]2CCC[C@@H]2C[C@H](C(=O)Nc2ccc3ncsc3c2)[C@@H]1c1ccc(NC2CCCC2)cc1 (racemic) [Compound 69, cis-N-(benzo[d]thiazol-6-yl)-2-(4-(cyclopentylamino)phenyl)-1-(2-fluoro-6-methylbenzoyl)octahydro-1H-cyclopenta[b]pyridine-3-carboxamide] | 50 to 500 | 2000 to 10000
Cc1cccc(F)c1C(=O)N1[C@@H]2CCC[C@@H]2C[C@H](C(=O)Nc2ccc3c(c2)OCCO3)[C@@H]1c1ccc(NC2CCCC2)cc1 (racemic) [Compound 71, cis-2-(4-(cyclopentylamino)phenyl)-N-(2,3-dihydrobenzo[b][1,4]dioxin-6-yl)-1-(2-fluoro-6-methylbenzoyl)octahydro-1H-cyclopenta[b]pyridine-3-carboxamide] | < 50 | 2000 to 10000
Cc1cccc(F)c1C(=O)N1C2CCC[C@@H]2C[C@H](C(=O)Nc2cccc(Cl)c2)[C@@H]1c1ccc(NC2CCCC2)cc1 (relative stereo) [Compound 55, cis-N-(3-chlorophenyl)-2-(4-(cyclopentylamino)phenyl)-1-(2-fluoro-6-methylbenzoyl)octahydro-1H-cyclopenta[b]pyridine-3-carboxamide] | 50 to 500 | 500 to 2000
Cc1cccc(F)c1C(=O)N1[C@@H]2CCC[C@@H]2C[C@H](C(=O)Nc2ccc(F)c(C(F)(F)F)c2)[C@@H]1c1ccc(NC2CCCC2)cc1 (relative stereo) [Compound 61, cis-2-(4-(cyclopentylamino)phenyl)-N-(4-fluoro-3-(trifluoromethyl)phenyl)-1-(2-fluoro-6-methylbenzoyl)octahydro-1H-cyclopenta[b]pyridine-3-carboxamide] | 2000 to 5000 | 2000 to 10000
Cc1cccc(F)c1C(=O)N1[C@@H]2CCC[C@@H]2C[C@H](C(=O)Nc2ccc(F)c(F)c2)[C@@H]1c1ccc(NC2CCCC2)cc1 (relative stereo) [Compound 65, cis-2-(4-(cyclopentylamino)phenyl)-N-(3,4-difluorophenyl)-1-(2-fluoro-6-methylbenzoyl)octahydro-1H-cyclopenta[b]pyridine-3-carboxamide] | 50 to 500 | 50 to 500
Cc1cccc(F)c1C(=O)N1[C@@H]2CCC[C@@H]2C[C@H](C(=O)Nc2ccc3c(cnn3CCF)c2)[C@@H]1c1ccc(NC2CCOCC2)cc1 [Compound 109, (2R,3S,4aR,7aR)-1-(2-fluoro-6-methylbenzoyl)-N-(1-(2-fluoroethyl)-1H-indazol-5-yl)-2-(4-((tetrahydro-2H-pyran-4-yl)amino)phenyl)octahydro-1H-cyclopenta[b]pyridine-3-carboxamide] | 500 to 2000 | –
